Assay results from ChEMBL document CHEMBL3046616, “Design, synthesis, and biological activities of milbemycin analogues” (2011).

Columns and labels:
Assay type in all cases: functional
Aphis fabae = test: Insecticidal activity against Aphis fabae (black bean aphid) infested soybean tender shoots measured 48 hr post compound dose by modified FAO dip method; set-up: concentration or dose not given beside the values
Mythimna separata = test: Insecticidal activity against Mythimna separata (Oriental armyworm) fourth-instar larvae reared compound pre-treated corn leaves assessed as insect mortality at 200 mg/L measured 2 days post compound dose
Tetranychus cinnabarinus = test: Insecticidal activity against Tetranychus cinnabarinus (carmine spider mite) […] assessed as larvicidal activity at 0.006 mg/L after 48 hr

Row | SMILES | mortality (Aphis fabae) [%] | mortality at 200 µg/mL (Mythimna separata) [%] | mortality at 0.006 µg/mL (Tetranychus cinnabarinus) [%]
1 | CCC(C)[C@H]1O[C@]2(CC[C@@H]1C)C[C@@H]1C[C@@H](C/C=C(\C)[C@@H](OC(=O)c3ccc(F)cc3)[C@@H](C)/C=C/C=C3\CO[C@@H]4[C@H](O)C(C)=C[C@@H](C(=O)O1)[C@]34O)O2 (some centres not stated) | 56.8 | 83.3 | 47.4
2 | CCC(C)[C@H]1O[C@]2(CC[C@@H]1C)C[C@@H]1C[C@@H](C/C=C(\C)[C@@H](O[C@H]3C[C@H](OC)[C@@H](OC(=O)c4ccccc4OC)[C@H](C)O3)[C@@H](C)/C=C/C=C3\CO[C@@H]4[C@H](O)C(C)=C[C@@H](C(=O)O1)[C@]34O)O2 (some centres not stated) | 100 | 98.2 | 16.4
3 | CCC(C)[C@H]1O[C@]2(CC[C@@H]1C)C[C@@H]1C[C@@H](C/C=C(\C)[C@@H](O[C@H]3C[C@H](OC)[C@@H](OC(=O)Nc4ccccc4)[C@H](C)O3)[C@@H](C)/C=C/C=C3\CO[C@@H]4[C@H](O)C(C)=C[C@@H](C(=O)O1)[C@]34O)O2 (some centres not stated) | 97.6 | 100 | 45.2
4 | CCC(C)[C@H]1O[C@]2(CC[C@@H]1C)C[C@@H]1C[C@@H](C/C=C(\C)[C@@H](OC(=O)Nc3ccccc3)[C@@H](C)/C=C/C=C3\CO[C@@H]4[C@H](O)C(C)=C[C@@H](C(=O)O1)[C@]34O)O2 (some centres not stated) | 96.8 | 100 | 55.2
5 | C/C=C/C(=O)O[C@H]1[C@H](C)O[C@@H](O[C@@H]2/C(C)=C/C[C@@H]3C[C@@H](C[C@]4(CC[C@H](C)[C@@H](C(C)CC)O4)O3)OC(=O)[C@@H]3C=C(C)[C@@H](O)[C@H]4OC/C(=C\C=C\[C@@H]2C)[C@]43O)C[C@@H]1OC (some centres not stated) | 100 | 88.9 | 25.1
6 | CCC(C)[C@H]1O[C@]2(CC[C@@H]1C)C[C@@H]1C[C@@H](C/C=C(\C)[C@@H](O[C@H]3C[C@H](OC)[C@@H](OC(=O)/C(=N\OC)c4ccccc4)[C@H](C)O3)[C@@H](C)/C=C/C=C3\CO[C@@H]4/C(=N/OC)C(C)=C[C@@H](C(=O)O1)[C@]34O)O2 (some centres not stated) | 15.9 | 0 | 36.6
7 | CCC(C)[C@H]1O[C@]2(CC[C@@H]1C)C[C@@H]1C[C@@H](C/C=C(\C)[C@@H](OC(=O)CC(C)(C)C)[C@@H](C)/C=C/C=C3\CO[C@@H]4[C@H](O)C(C)=C[C@@H](C(=O)O1)[C@]34O)O2 (some centres not stated) | 76.5 | 88.9 | 35.5
8 | CCC(C)[C@H]1O[C@]2(CC[C@@H]1C)C[C@@H]1C[C@@H](C/C=C(\C)[C@@H](O[C@H]3C[C@H](OC)[C@@H](OC(=O)C4C(C=C(Br)Br)C4(C)C)[C@H](C)O3)[C@@H](C)/C=C/C=C3\CO[C@@H]4[C@H](O)C(C)=C[C@@H](C(=O)O1)[C@]34O)O2 (some centres not stated) | 100 | 83.3 | 13.4
9 | CCC(C)[C@H]1O[C@]2(CC[C@@H]1C)C[C@@H]1C[C@@H](C/C=C(\C)[C@@H](OC(=O)c3ccc(F)cc3)[C@@H](C)/C=C/C=C3\CO[C@@H]4/C(=N/OC)C(C)=C[C@@H](C(=O)O1)[C@]34O)O2 (some centres not stated) | 0 | 0 | 19.8
10 | CCC(C)[C@H]1O[C@]2(CC[C@@H]1C)C[C@@H]1C[C@@H](C/C=C(\C)[C@@H](O[C@H]3C[C@H](OC)[C@@H](OC(=O)c4ccc(C)cc4)[C@H](C)O3)[C@@H](C)/C=C/C=C3\CO[C@@H]4[C@H](O)C(C)=C[C@@H](C(=O)O1)[C@]34O)O2 (some centres not stated) | 92.5 | 89.7 | 4.5
11 | CCC(C)[C@H]1O[C@]2(CC[C@@H]1C)C[C@@H]1C[C@@H](C/C=C(\C)[C@@H](O[C@H]3C[C@H](OC)[C@@H](OC(=O)c4cc(F)c(Cl)nc4Cl)[C@H](C)O3)[C@@H](C)/C=C/C=C3\CO[C@@H]4[C@H](O)C(C)=C[C@@H](C(=O)O1)[C@]34O)O2 (some centres not stated) | 88.2 | 0 | 16.5
12 | C/C=C\C(=O)O[C@@H]1/C(C)=C/C[C@@H]2C[C@@H](C[C@]3(CC[C@H](C)[C@@H](C(C)CC)O3)O2)OC(=O)[C@@H]2C=C(C)[C@@H](O)[C@H]3OC/C(=C\C=C\[C@@H]1C)[C@]32O (some centres not stated) | 73.5 | 76.8 | 40.9
13 | CCC(C)[C@H]1O[C@]2(CC[C@@H]1C)C[C@@H]1C[C@@H](C/C=C(\C)[C@@H](O[C@H]3C[C@H](OC)[C@@H](OC(=O)Nc4ccc(Cl)cc4)[C@H](C)O3)[C@@H](C)/C=C/C=C3\CO[C@@H]4[C@H](O)C(C)=C[C@@H](C(=O)O1)[C@]34O)O2 (some centres not stated) | 90.3 | 77.9 | 29.8
14 | CCC(C)[C@H]1O[C@]2(CC[C@@H]1C)C[C@@H]1C[C@@H](C/C=C(\C)[C@@H](OC(=O)/C(=N\OC)c3ccccc3)[C@@H](C)/C=C/C=C3\CO[C@@H]4/C(=N/OC)C(C)=C[C@@H](C(=O)O1)[C@]34O)O2 (some centres not stated) | 6.5 | 0 | 49
15 | CCC(C)[C@H]1O[C@]2(CC[C@@H]1C)C[C@@H]1C[C@@H](C/C=C(\C)[C@@H](O[C@H]3C[C@H](OC)[C@@H](OC(=O)c4ccc(F)cc4)[C@H](C)O3)[C@@H](C)/C=C/C=C3\CO[C@@H]4/C(=N/OC)C(C)=C[C@@H](C(=O)O1)[C@]34O)O2 (some centres not stated) | 11.2 | 0 | 11.1
16 | CCC(C)[C@H]1O[C@]2(CC[C@@H]1C)C[C@@H]1C[C@@H](C/C=C(\C)[C@@H](O[C@H]3C[C@H](OC)[C@@H](OC(=O)c4ccc(Cl)cc4)[C@H](C)O3)[C@@H](C)/C=C/C=C3\CO[C@@H]4/C(=N/OC)C(C)=C[C@@H](C(=O)O1)[C@]34O)O2 (some centres not stated) | 8.7 | 0 | 6.2
17 | CCC(C)[C@H]1O[C@]2(CC[C@@H]1C)C[C@@H]1C[C@@H](C/C=C(\C)[C@@H](O[C@H]3C[C@H](OC)[C@@H](OC(=O)c4ccccc4)[C@H](C)O3)[C@@H](C)/C=C/C=C3\CO[C@@H]4/C(=N/OC)C(C)=C[C@@H](C(=O)O1)[C@]34O)O2 (some centres not stated) | 5.9 | 0 | 8.6
18 | CCC(C)[C@H]1O[C@]2(CC[C@@H]1C)C[C@@H]1C[C@@H](C/C=C(\C)[C@@H](OC(=O)c3ccccc3)[C@@H](C)/C=C/C=C3\CO[C@@H]4/C(=N/OC)C(C)=C[C@@H](C(=O)O1)[C@]34O)O2 (some centres not stated) | 7.2 | 0 | 9.2
19 | CCC(C)[C@H]1O[C@]2(CC[C@@H]1C)C[C@@H]1C[C@@H](C/C=C(\C)[C@@H](O[C@H]3C[C@H](OC)[C@@H](OC(=O)c4ccc(OC)cc4)[C@H](C)O3)[C@@H](C)/C=C/C=C3\CO[C@@H]4/C(=N/OC)C(C)=C[C@@H](C(=O)O1)[C@]34O)O2 (some centres not stated) | 9.3 | 0 | 6.8
20 | CCC(C)[C@H]1O[C@]2(CC[C@@H]1C)C[C@@H]1C[C@@H](C/C=C(\C)[C@@H](OC(=O)c3ccc(OC)cc3)[C@@H](C)/C=C/C=C3\CO[C@@H]4/C(=N/OC)C(C)=C[C@@H](C(=O)O1)[C@]34O)O2 (some centres not stated) | 6.3 | 0 | 5.9
21 | CCC(C)[C@H]1O[C@]2(CC[C@@H]1C)C[C@@H]1C[C@@H](C/C=C(\C)[C@@H](OC(=O)Cc3ccccc3)[C@@H](C)/C=C/C=C3\CO[C@@H]4[C@H](O)C(C)=C[C@@H](C(=O)O1)[C@]34O)O2 (some centres not stated) | 62.7 | 89.9 | 44.9
22 | CCC(C)[C@H]1O[C@]2(CC[C@@H]1C)C[C@@H]1C[C@@H](C/C=C(\C)[C@@H](OC(=O)C3C(C=C(Br)Br)C3(C)C)[C@@H](C)/C=C/C=C3\CO[C@@H]4[C@H](O)C(C)=C[C@@H](C(=O)O1)[C@]34O)O2 (some centres not stated) | 72.9 | 100 | 32.1
23 | CCC(C)[C@H]1O[C@]2(CC[C@@H]1C)C[C@@H]1C[C@@H](C/C=C(\C)[C@@H](OC(=O)Nc3ccc(Cl)cc3)[C@@H](C)/C=C/C=C3\CO[C@@H]4[C@H](O)C(C)=C[C@@H](C(=O)O1)[C@]34O)O2 (some centres not stated) | 67.8 | 88.5 | 30.8
24 | CCC(C)[C@H]1O[C@]2(CC[C@@H]1C)C[C@@H]1C[C@@H](C/C=C(\C)[C@@H](OC(=O)/C(=N\OC)c3ccccc3)[C@@H](C)/C=C/C=C3\CO[C@@H]4[C@H](O)C(C)=C[C@@H](C(=O)O1)[C@]34O)O2 (some centres not stated) | 86.3 | 75.5 | 41.5
25 | CCC(C)[C@H]1O[C@]2(CC[C@@H]1C)C[C@@H]1C[C@@H](C/C=C(\C)[C@@H](OC(=O)c3ccc(C)cc3)[C@@H](C)/C=C/C=C3\CO[C@@H]4[C@H](O)C(C)=C[C@@H](C(=O)O1)[C@]34O)O2 (some centres not stated) | 56.4 | 87.6 | 27.1
26 | CCC(C)[C@H]1O[C@]2(CC[C@@H]1C)C[C@@H]1C[C@@H](C/C=C(\C)[C@@H](OC(=O)c3ccc(Cl)cc3)[C@@H](C)/C=C/C=C3\CO[C@@H]4/C(=N/OC)C(C)=C[C@@H](C(=O)O1)[C@]34O)O2 (some centres not stated) | 0 | 0 | 10.2
27 | CCC(C)[C@H]1O[C@]2(CC[C@@H]1C)C[C@@H]1C[C@@H](C/C=C(\C)[C@@H](OC(=O)c3ccccc3)[C@@H](C)/C=C/C=C3\CO[C@@H]4[C@H](O)C(C)=C[C@@H](C(=O)O1)[C@]34O)O2 (some centres not stated) | 76.5 | 88.6 | 31.1
28 | CCC(C)[C@H]1O[C@]2(CC[C@@H]1C)C[C@@H]1C[C@@H](C/C=C(\C)[C@@H](OC(=O)c3ccc(OC)cc3)[C@@H](C)/C=C/C=C3\CO[C@@H]4[C@H](O)C(C)=C[C@@H](C(=O)O1)[C@]34O)O2 (some centres not stated) | 75.2 | 100 | 34.8
29 | CCC(C)[C@H]1O[C@]2(CC[C@@H]1C)C[C@@H]1C[C@@H](C/C=C(\C)[C@@H](O[C@H]3C[C@H](OC)[C@@H](OC(=O)c4ccc(OC)cc4)[C@H](C)O3)[C@@H](C)/C=C/C=C3\CO[C@@H]4[C@H](O)C(C)=C[C@@H](C(=O)O1)[C@]34O)O2 (some centres not stated) | 92.3 | 100 | 9.7
